The values below are quoted from earlier work in patent publication US5348950A, “Platinum(II) complex and antitumor agent” (Toray Industries, Inc., priority 1991, dated 1994).

SMILES strings stand for the structures.

The conditions of this data set: background statement.

Regarding `N.N.O=C([O-])C1(C(=O)[O-])CCC1.[Pt+2]` [CBDCA, cisdiammine(1,1-cyclobutanedicarboxylato)platinum(II)], the anti-tumor activity entry was “low anti-tumor activity”. As for `N.N.[Cl][Pt][Cl]` [CDDP, cisdiamminedichloroplatinum(II)], the side effects result is “strong side effects”.
